Data published in ChEMBL document CHEMBL1144756, “Isoprenoid glycosides from Liriosma ovata” (2008).
Converted amounts (≈) assume the structure as drawn.

Columns and labels:
Assay type in all cases: functional
Staphylococcus aureus = assay: Antibacterial activity against Staphylococcus aureus ATCC 6538 after 24 hrs by broth microdilution method; details: ATCC 6538, 24 h
Pseudomonas aeruginosa = assay: Antibacterial activity against Pseudomonas aeruginosa ATCC 9027 after 24 hrs by broth microdilution method; details: ATCC 9027, 24 h
Mus musculus = assay: Antiinflammatory activity against corton oil-induced ear edema in mouse

Row | MIC (Staphylococcus aureus) [µg/mL] | MIC (Pseudomonas aeruginosa) [µg/mL] | Compound | MBC (Staphylococcus aureus) [µg/mL] | MBC (Pseudomonas aeruginosa) [µg/mL] | ID50 (Mus musculus) [microg/cm2]
1 | 4 (≈ 7.68 µM) | > 20 | CC(=O)/C=C/[C@@]1(O)[C@H](C)C[C@H](O[C@@H]2O[C@H](CO[C@@H]3OC[C@](O)(CO)[C@H]3O)[C@@H](O)[C@H](O)[C@H]2O)CC1(C)C | – | – | –
2 | > 20 | > 20 | CC(C)O[C@@H]1O[C@H](CO[C@@H]2OC[C@](O)(CO)[C@H]2O)[C@@H](O)[C@H](O)[C@H]1O | – | – | –
3 | 2 (≈ 4.6 µM) | 4 (≈ 9.21 µM) | CC(C)(O)[C@@H]1CC[C@]2(C)[C@@H](O[C@@H]3O[C@H](CO)[C@@H](O)[C@H](O)[C@H]3O)C[C@@H](O)[C@](C)(O)[C@H]2C1 | 4 (≈ 9.21 µM) | 4 (≈ 9.21 µM) | –
4 | – | – | COc1ccc2c(c1)c(CC(=O)O)c(C)n2C(=O)c1ccc(Cl)cc1 [INDOMETHACIN] | – | – | 93
